Data as given in PubChem BioAssay (NCI).
Several values for one entry are separate records, joined by “and”; a condition that tells them apart may be missing. Identical values can stand only once.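 Protocol summary: plate cells (96-well), add compound at 5 concentrations, incubate 48 h, interpolate endpoints linearly. Abbreviation: GI50, concentration required for 50% inhibition of growth. TGI is the concentration that stops growth completely.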

How the values were obtained:
Assay in all cases: NCI-60 cell line screen, 48 h
ACHN renal = test system: ACHN renal
BT-549 breast = test system: BT-549 breast
CCRF-CEM leukemia = test system: CCRF-CEM leukemia
EKVX NSCLC = test system: EKVX NSCLC
KM12 colon = test system: KM12 colon
MOLT-4 leukemia = test system: MOLT-4 leukemia
SK-MEL-2 melanoma = test system: SK-MEL-2 melanoma
SK-MEL-28 melanoma = test system: SK-MEL-28 melanoma
SN12C renal = test system: SN12C renal
SNB-19 CNS = test system: SNB-19 CNS

Structure (SMILES) | GI50 (ACHN renal) [µM] | TGI (ACHN renal) | GI50 (BT-549 breast) | TGI (BT-549 breast) | GI50 (CCRF-CEM leukemia) | TGI (CCRF-CEM leukemia) [µM] | GI50 (EKVX NSCLC) [µM] | TGI (EKVX NSCLC) [µM] | GI50 (KM12 colon) | TGI (KM12 colon) [µM] | GI50 (MOLT-4 leukemia) [nM] | TGI (MOLT-4 leukemia) [µM] | GI50 (SK-MEL-2 melanoma) [µM] | TGI (SK-MEL-2 melanoma) | GI50 (SK-MEL-28 melanoma) [µM] | TGI (SK-MEL-28 melanoma) [µM] | GI50 (SN12C renal) [µM] | TGI (SN12C renal) | GI50 (SNB-19 CNS) | TGI (SNB-19 CNS)
CC#CC(=O)N1CC[C@@H](n2c(=O)n(-c3ccc(Oc4ccccc4)cc3)c3c(N)ncnc32)C1 | 21.4 | > 100 µM | 14.5 µM | 55 µM | 26.2 µM | > 100 | 19.7 | > 100 | 32.9 µM | > 100 | 10200 | 62.1 | 38.8 | > 100 µM | 35.8 | > 100 | 20.8 | > 100 µM | 37.4 µM | > 100 µM
Oc1c(CN2CCN(c3ccccc3F)CC2)cc(Br)c2cccnc12 | 0.495 | 13.7 µM | 2.02 µM | > 100 µM | 0.355 µM | 6.35 | – | – | 0.672 µM | > 100 | 743 | 5.92 | 7.65 | > 51.6 µM | 2.49 | > 100 | 0.987 | 20.5 µM | 1.14 µM | > 100 µM
Fc1cccc(-c2[nH]nc3nc(Nc4cccnc4)sc23)c1 | 56.6 | > 100 µM | 14.9 µM | 47 µM | 3.5 µM | > 100 | 6.75 | > 100 | 0.631 µM | > 100 | 9130 | > 100 | 42.2 | > 100 µM | 17.5 | > 100 | > 100 | > 100 µM | – | –
COc1ccc(C2c3c(-c4ccccc4)nn(-c4ccccc4)c3Oc3ncn4nc(CC#N)nc4c32)cc1OC (stereo not given) | – | > 100 µM and 16.1 µM | 19.9 µM and 8.82 µM | 59.2 µM and > 41.6 µM | 28.6 µM and > 100 µM | > 100 | – | > 76.3 | 78.2 µM and > 22.1 µM | > 100 | – | > 100 | – | > 100 µM and 47.3 µM | – | > 100 | – | 44.5 µM and > 41.9 µM | 23.6 µM and 4.62 µM | 73.7 µM and 33.7 µM
Clc1ccc2c(NCCNc3nc(N4CCCC4)nc4ccccc34)ccnc2c1 | 1.64 | 3 µM | 2.01 µM | 4.98 µM | 0.457 µM | > 100 | 2.08 | 7.65 | 1.02 µM | 2.46 | 538 | 5.1 | 1.86 | 3.85 µM | 1.84 | 3.55 | 1.16 | 3.3 µM | 1.6 µM | 5.62 µM
C=CCSSc1ncnc2c1ncn2C1OC(CO)C(O)C1O (stereo not given) | 3.34 | > 100 µM | 3.67 µM | > 100 µM | 0.46 µM | 4.5 | 69.3 | > 100 | 3.24 µM | > 39.9 | 1540 | 6.75 | 6.25 | > 41.9 µM | 36.5 | > 100 | 11.3 | > 100 µM | > 55.7 µM | > 100 µM
